Tests used:
[1] = biological target: T1, C-X-C chemokine receptor type 2 (Homo sapiens, UniProt P25025); assay type: cell membranes, Membrane; conditions: cho-k1; also: in other assays of this panel Not Active means under 50% inhibition at 10 µM
T1 sequence (P25025 whole entry): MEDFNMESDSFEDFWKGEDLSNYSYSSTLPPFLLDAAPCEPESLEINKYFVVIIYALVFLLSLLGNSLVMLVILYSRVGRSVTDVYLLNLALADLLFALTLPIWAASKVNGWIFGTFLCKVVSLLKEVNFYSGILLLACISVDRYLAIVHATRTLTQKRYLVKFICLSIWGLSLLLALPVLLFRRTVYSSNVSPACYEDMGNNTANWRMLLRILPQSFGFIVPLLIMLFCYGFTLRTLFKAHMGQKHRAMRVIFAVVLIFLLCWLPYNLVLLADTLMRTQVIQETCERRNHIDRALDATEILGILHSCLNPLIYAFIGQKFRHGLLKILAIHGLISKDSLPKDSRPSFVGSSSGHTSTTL

[2] = biological target: 5-hydroxytryptamine receptor 4 (Cavia porcellus, UniProt O70528); assay type: cell membranes, Dunkin-Hartley, Striatum, Membrane; also: in other assays of this panel Not Active means under 50% inhibition at 10 µM
Chain of 5-hydroxytryptamine receptor 4 (O70528 whole entry): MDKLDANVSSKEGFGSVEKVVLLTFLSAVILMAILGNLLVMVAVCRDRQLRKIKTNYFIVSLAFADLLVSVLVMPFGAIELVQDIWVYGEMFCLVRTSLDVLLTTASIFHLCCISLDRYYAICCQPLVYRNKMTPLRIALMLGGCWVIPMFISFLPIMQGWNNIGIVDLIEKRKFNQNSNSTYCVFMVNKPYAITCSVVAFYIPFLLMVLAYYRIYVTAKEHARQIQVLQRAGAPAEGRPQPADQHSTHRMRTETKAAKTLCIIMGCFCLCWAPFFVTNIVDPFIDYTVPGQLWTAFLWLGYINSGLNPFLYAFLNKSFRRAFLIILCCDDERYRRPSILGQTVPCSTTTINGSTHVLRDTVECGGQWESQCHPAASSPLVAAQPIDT

[3] = biological target: T2, Vasoactive intestinal polypeptide receptor 1 (Homo sapiens, UniProt P32241); assay type: cell membranes, Membrane; conditions: ht-29; also: in other assays of this panel Not Active means under 50% inhibition at 10 µM
T2 sequence (P32241 whole entry): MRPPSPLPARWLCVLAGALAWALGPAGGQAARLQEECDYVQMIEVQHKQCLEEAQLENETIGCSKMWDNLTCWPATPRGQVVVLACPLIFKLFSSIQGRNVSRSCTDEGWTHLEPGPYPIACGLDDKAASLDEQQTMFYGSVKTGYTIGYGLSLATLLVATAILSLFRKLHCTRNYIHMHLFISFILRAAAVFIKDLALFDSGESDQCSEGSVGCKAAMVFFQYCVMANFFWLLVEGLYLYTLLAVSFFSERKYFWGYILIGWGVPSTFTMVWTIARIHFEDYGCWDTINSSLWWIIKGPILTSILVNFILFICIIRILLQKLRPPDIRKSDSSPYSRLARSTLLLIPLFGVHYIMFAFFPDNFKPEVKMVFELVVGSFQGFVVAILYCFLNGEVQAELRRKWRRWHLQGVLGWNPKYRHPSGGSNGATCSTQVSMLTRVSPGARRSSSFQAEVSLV

[4] = DRUGMATRIX: Calcium Channel Type L, Dihydropyridine radioligand binding (ligand: [3H] Nitrendipine); assay type: cell membranes, Rattus norvegicus, Wistar, Cerebral cortex, Membrane; conditions: Not Active = under 50% inhibition at 10 µM
[5] = DRUGMATRIX: Calcium Channel Type L, Benzothiazepine radioligand binding (ligand: [3H] Diltiazem); assay type: cell membranes, Rattus norvegicus, Wistar, Brain, Membrane; conditions: Not Active = under 50% inhibition at 10 µM
[6] = biological target: Beta-3 adrenergic receptor (Homo sapiens, UniProt P13945); test: DRUGMATRIX: Adrenergic beta3 radioligand binding (ligand: [125I] Cyanopindolol); assay type: cell membranes, HEK293, Membrane; conditions: Not Active = under 50% inhibition at 10 µM; for Ki: read-out: Ki
Chain of Beta-3 adrenergic receptor (P13945 whole entry): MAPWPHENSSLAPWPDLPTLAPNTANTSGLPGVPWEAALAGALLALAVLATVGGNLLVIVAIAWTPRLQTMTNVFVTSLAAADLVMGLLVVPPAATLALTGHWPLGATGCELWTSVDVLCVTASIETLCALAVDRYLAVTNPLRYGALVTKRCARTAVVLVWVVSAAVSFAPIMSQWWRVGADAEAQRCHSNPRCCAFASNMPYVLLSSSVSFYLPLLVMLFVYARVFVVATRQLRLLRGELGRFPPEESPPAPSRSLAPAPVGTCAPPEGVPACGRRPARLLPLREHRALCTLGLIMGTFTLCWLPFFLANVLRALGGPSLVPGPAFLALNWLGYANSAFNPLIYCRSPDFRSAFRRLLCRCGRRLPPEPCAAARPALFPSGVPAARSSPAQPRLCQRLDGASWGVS

Compound	IC50 [1]	IC50 [2]	IC50 [3]	IC50 [4]	Ki [4]	IC50 [5]	Ki [5]	IC50 ([6]; read-out: IC50) [µM]	Ki [6] [µM]	IC50 ([6]; hek293)	IC50 ([4]; read-out: IC50) [µM]	Ki ([4]; read-out: Ki) [µM]	IC50 ([5]; read-out: IC50) [µM]	Ki ([5]; read-out: Ki) [µM]
CCOc1nc2cccc(C(=O)O)c2n1Cc1ccc(-c2ccccc2-c2nnn[nH]2)cc1	Not Active	Not Active	Not Active	Not Active	Not Active	Not Active	Not Active	4.3	3.2	–	–	–	–	–
O=C(O)CCCc1cccs1	Not Active	Not Active	Not Active	Not Active	Not Active	Not Active	Not Active	–	–	Not Active	–	–	–	–
COc1ccccc1N	Not Active	Not Active	Not Active	Not Active	Not Active	Not Active	Not Active	–	–	Not Active	–	–	–	–
O=C(c1ccccc1F)N1CCC(Cc2ccccc2)CC1	Not Active	Not Active	Not Active	Not Active	Not Active	Not Active	Not Active	–	–	Not Active	–	–	–	–
Cc1c(O)cccc1C(=O)N[C@@H](CSc1ccccc1)[C@H](O)CN1C[C@H]2CCCC[C@H]2C[C@H]1C(=O)NC(C)(C)C	Not Active	Not Active	Not Active	–	–	–	–	34.1	25.6	–	9.84	6.32	14.6	13
CC(O)COC[C@H]1O[C@@H]2O[C@H]3[C@H](O)[C@@H](O)[C@@H](O[C@H]4[C@H](O)[C@@H](O)[C@@H](O[C@H]5[C@H](O)[C@@H](O)[C@@H](O[C@H]6[C@H](O)[C@@H](O)[C@@H](O[C@H]7[C@H](O)[C@@H](O)[C@@H](O[C@H]8[C@H](O)[C@@H](O)[C@@H](O[C@H]1[C@H](O)[C@H]2O)O[C@@H]8COCC(C)O)O[C@@H]7COCC(C)O)O[C@@H]6COCC(C)O)O[C@@H]5COCC(C)O)O[C@@H]4COCC(C)O)O[C@@H]3COCC(C)O (stereo partly drawn) [2-HYDROXYPROPYL-BETA-CYCLODEXTRIN]	Not Active	Not Active	Not Active	Not Active	Not Active	Not Active	Not Active	–	–	Not Active	–	–	–	–
NC(=O)c1cccc(N)c1 [3-AMINOBENZAMIDE]	Not Active	Not Active	Not Active	Not Active	Not Active	Not Active	Not Active	–	–	Not Active	–	–	–	–
C[C@H]1O[C@H](O[C@H]2[C@H](O)[C@@H](O)[C@@H](O[C@H]3[C@H](O)[C@@H](O)C(O)O[C@@H]3CO)O[C@@H]2CO)[C@H](O)[C@@H](O)[C@@H]1N[C@H]1C=C(CO)[C@@H](O)[C@H](O)[C@H]1O (stereo partly specified) [ACARBOSE]	Not Active	Not Active	Not Active	Not Active	Not Active	Not Active	Not Active	–	–	Not Active	–	–	–	–
CC[C@H]1[C@@H]2C[C@H]3[C@@H]4N(C)c5ccccc5[C@]45C[C@@H]([C@@H]2[C@H]5O)N3[C@@H]1O [AJMALINE]	Not Active	Not Active	Not Active	Not Active	Not Active	Not Active	Not Active	–	–	Not Active	–	–	–	–
NC12CC3CC(CC(C3)C1)C2 [AMANTADINE]	Not Active	Not Active	Not Active	Not Active	Not Active	Not Active	Not Active	–	–	Not Active	–	–	–	–
NCCCNCCSP(=O)(O)O [AMIFOSTINE]	Not Active	Not Active	Not Active	Not Active	Not Active	Not Active	Not Active	–	–	Not Active	–	–	–	–
CN(C)CCC=C1c2ccccc2CCc2ccccc21 [AMITRIPTYLINE]	Not Active	Not Active	Not Active	Not Active	Not Active	–	–	–	–	Not Active	–	–	1.99	1.77
CC(=O)Oc1ccccc1C(=O)O [ASPIRIN]	Not Active	Not Active	Not Active	Not Active	Not Active	Not Active	Not Active	–	–	Not Active	–	–	–	–
CC(C)c1c(C(=O)Nc2ccccc2)c(-c2ccccc2)c(-c2ccc(F)cc2)n1CC[C@@H](O)C[C@@H](O)CC(=O)O [ATORVASTATIN]	Not Active	Not Active	Not Active	Not Active	Not Active	Not Active	Not Active	–	–	Not Active	–	–	–	–
CC(=O)OC[C@H]1O[C@@H](n2ncc(=O)[nH]c2=O)[C@H](OC(C)=O)[C@@H]1OC(C)=O [AZARIBINE]	Not Active	Not Active	Not Active	Not Active	Not Active	Not Active	Not Active	–	–	Not Active	–	–	–	–
C[C@H]1[C@H](NC(=O)/C(=N\OC(C)(C)C(=O)O)c2csc(N)n2)C(=O)N1S(=O)(=O)O [AZTREONAM]	Not Active	Not Active	Not Active	Not Active	Not Active	Not Active	Not Active	–	–	Not Active	–	–	–	–
O=C(O)CCNC(=O)c1ccc(/N=N/c2ccc(O)c(C(=O)O)c2)cc1 [BALSALAZIDE]	Not Active	Not Active	Not Active	Not Active	Not Active	Not Active	Not Active	–	–	Not Active	–	–	–	–
COc1cc(OC)c(C(=O)CCCN2CCCC2)c(OC)c1 [BUFLOMEDIL]	Not Active	Not Active	Not Active	Not Active	Not Active	Not Active	Not Active	–	–	Not Active	–	–	–	–
Cn1c(=O)c2c(ncn2C)n(C)c1=O [CAFFEINE]	Not Active	Not Active	Not Active	Not Active	Not Active	Not Active	Not Active	–	–	Not Active	–	–	–	–
ClC(Cl)(Cl)Cl [CARBON TETRACHLORIDE]	Not Active	Not Active	Not Active	Not Active	Not Active	Not Active	Not Active	–	–	Not Active	–	–	–	–
CO/N=C(\C(=O)N[C@@H]1C(=O)N2C(C(=O)O)=C(COC(C)=O)CS[C@H]12)c1csc(N)n1 [CEFOTAXIME]	Not Active	Not Active	Not Active	Not Active	Not Active	Not Active	Not Active	–	–	Not Active	–	–	–	–
CNC1=Nc2ccc(Cl)cc2C(c2ccccc2)=[N+]([O-])C1 [CHLORDIAZEPOXIDE]	Not Active	Not Active	Not Active	Not Active	Not Active	Not Active	Not Active	–	–	Not Active	–	–	–	–
Cc1cc(O)cc(C)c1Cl [CHLOROXYLENOL]	Not Active	Not Active	Not Active	Not Active	Not Active	Not Active	Not Active	–	–	Not Active	–	–	–	–
CCCNC(=O)NS(=O)(=O)c1ccc(Cl)cc1 [CHLORPROPAMIDE]	Not Active	Not Active	Not Active	Not Active	Not Active	Not Active	Not Active	–	–	Not Active	–	–	–	–
NS(=O)(=O)c1cc(C2(O)NC(=O)c3ccccc32)ccc1Cl (stereo unspecified) [CHLORTHALIDONE]	Not Active	Not Active	Not Active	Not Active	Not Active	Not Active	Not Active	–	–	Not Active	–	–	–	–
O=C(O)CC(O)(CC(=O)O)C(=O)O [CITRIC ACID]	Not Active	Not Active	Not Active	Not Active	Not Active	Not Active	Not Active	–	–	Not Active	–	–	–	–
CC(C)NCC(O)c1ccccc1Cl (stereo unspecified) [CLORPRENALINE]	Not Active	Not Active	Not Active	Not Active	Not Active	Not Active	Not Active	–	–	Not Active	–	–	–	–
CN1CCN(C(c2ccccc2)c2ccccc2)CC1 [CYCLIZINE]	Not Active	Not Active	Not Active	Not Active	Not Active	–	–	–	–	Not Active	–	–	2.52	2.24
